Results taken from patent publication US8871772B2, “Therapeutic methods and compounds” (Ampio Pharmaceuticals, Inc., priority 2008, dated 2014).

Assays:
[1] = tested on: STTG grade 4 astrocytoma cell line; experiment: Proliferation of STTG cancer cells, Promega cell titer assay; format: cell-based; details: 96 hours, negative number = increase
Protocol: Assays were performed to determine the effect of Cpd. 5 (synthesis described in Example 1) on proliferation of two cancer cell lines. These two cell lines were STTG grade 4 astrocytoma cell line and AU565 breast cancer cell line. Both cell lines were obtained from American Type Culture Collection, Rockville, Md. (ATCC).
To perform the assays, a 50 mM stock solution of Cpd. 5 was prepared in DMSO and frozen at −80° C. Aliquots of the stock solution were removed and 100 μM dilutions were made in Iscove's modified Dulbecco's medium (IMDM; obtained from ATCC) supplemented with 10% fetal bovine serum (FBS) and penicillin/streptomycin solution. Controls containing equivalent amounts of DMSO to the 100 μM solution were mixed for comparative purposes. 100 μl of the resulting solutions were then added to 96 well culture plates in triplicate and placed in a 37° C. incubator with 5% CO2 to warm.
At this point, cells were removed from passage flasks using trypsin and counted using trypan blue to establish cell counts/ml and viability. For all experiments, viability of cells was greater than 95%. Solutions of 4,000 cells/100 μl were prepared in the medium from above and 100 μl of the solutions were added to each well of the plates. The plates were placed back in the incubator and incubated with the compounds for 96 hours.
Following incubation, cell proliferation was assayed by adding 20 μl Promega cell titer aqueous one reagent to each well. […] The plates were incubated at 37° C. for an additional 4-18 hours to allow the colorimetric assay to develop, and the OD of each well was determined in a microplate reader using a 530 nm filter. The OD of wells containing cell titer reagent in culture medium with no cells was subtracted from the OD of all experimental readings.
The % decrease of the total cell titer signal was determined using the following formula. […] The p values were calculated versus diluent controls.

Akt = Akt phosphorylation in WM-266-4 melanoma cells, CASE ELISA (S473); format: cell-based; details: IGF-1 stimulated; for inhibition at 50 µM: WM 266-4, WM-266-4, 50 μM
Protocol: Assays were performed to determine the effect of Cpd. 5 (synthesis described in Example 1) on phosphorylation of Akt in WM-266-4, a metastatic melanoma cell line obtained from ATCC. The WM-266-4 cells were grown in 25 cm^2 flasks using IMDM medium (obtained from Lonza) supplemented with 10% fetal bovine serum (FBS, HyClone) and 1% penicillin/streptomycin solution (Lonza). Cells were removed from the flasks using trypsin/EDTA (Lonza) and counted using trypan blue to establish cell counts. Cells in the above supplemented IMDM medium were added to the wells of a 96-well plate (10,000 cells/well), and the plates were incubated at 37° C., 5% CO2, for 24 hours. After 24 hours, the medium was removed and replaced with medium not containing any serum (serum-free IMDM), and the plates were incubated at 37° C., 5% CO2, for an additional 24 hours.
After this incubation, the test compounds were added to the plates as follows. A 20 mM stock solution of Cpd. 5 was prepared in DMSO and frozen at −80° C. Aliquots of the stock solution were removed and dilutions were made in serum-free IMDM medium. Final concentrations of Cpd. 5 were 10 μM and 50 μM. Controls containing equivalent amounts of DMSO as the two concentrations of Cpd. 5 (0.05% and 0.25%) were mixed for comparative purposes. The other control was the PI3 kinase inhibitor, LY294002 (obtained from Sigma), final concentration of 50 μM. 100 μl of each test compound solution were then added to 96 well culture plates in duplicate, and the plates were placed back into the incubator and incubated at 37° C., 5% CO2, for 1 hour.
Following this incubation, 100 μl of serum-free IMDM containing either 0 or 400 ng/ml IGF-1 (obtained from Sigma), an Akt phosphorylation promoter, were added, and the plates incubated at 37° C., 5% CO2, for 1 more hour. At the end of this time, the cells were fixed immediately with 4% formaldehyde, refrigerated, and the extent of phosphorylation of Akt determined using the Akt Cellular Activation of Signaling ELISA (CASE™ Kit for AKT S473; SABiosciences, Frederick, Md.) following the manufacturer's protocols. The CASE™ Kit for AKT S473 quantifies the amount of activated (phosphorylated) Akt protein relative to total Akt protein. For further details of the CASE ELISA assay, see Example 6.
The results were calculated as follows. The treatment groups containing IGF-I/DMSO were subtracted from their respective IGF-1/DMSO only groups (positive control). This value was divided by the difference between the respective DMSO only group (negative control) and the respective positive control. This value represents the percent inhibition of Akt phosphorylation attributable to the inhibitor alone since the contribution of DMSO is subtracted out.

Row | Compound | MEAN % DECREASE of cell titer signal ([1]; 20 μM) | inhibition at 50 µM (Akt; Homo sapiens) | MEAN % DECREASE of cell titer signal ([1]; 50 μM) | inhibition at 10 µM (Akt; Homo sapiens, WM 266-4, WM-266-4, 10 μM) | MEAN % INHIBITION OF Akt PHOSPHORYLATION (Akt; WM-266-4, 50 μM, 50 µM)
1 | O=c1cc(N2CCOCC2)oc2c(-c3ccccc3)cccc12 [LY294002, reference compound] | −46.72% | 23.1% | – | – | –
2 | COC(=O)C(c1ccc(-c2ccccc2)cc1)C1NC(=O)CNC1=O (stereo not drawn) [Cpd. 5, biphenyl-4-yl-(3,6-dioxo-piperazin-2-yl)-acetic acid methyl ester] | – | 47% | 78.74% | 102% | 55.9%
